# In patent publication US7553618B2, “Method for determining human immunodeficiciency virus type 1 (HIV-1) hypersusceptibility to the protease inhibitor amprenavir” (Monogram Biosciences, Inc., priority 2002, dated 2009):
# Test system: HIV-1 from patient plasma samples
# Experiment: PHENOSENSE HIV phenotypic susceptibility assay, fold change in IC50 of patient virus versus NL4-3 reference virus
# Format: cell-based
# Settings: Patient IC50/reference (NL4-3) IC50; for Fold change (FC) in IC50, 10th percentile: 10th percentile of distribution over 1515 patient samples, hypersusceptibility cut-off; for Fold change (FC) in IC50, 90th percentile: 90th percentile of distribution over 1515 patient samples; for Fold change (FC) in IC50, mean: mean over 1515 patient samples without resistance-selected mutations; for Fold change (FC) in IC50, median: median over 1515 patient samples without resistance-selected mutations
# Protocol: In a preferred embodiment, the phenotypic analysis is performed using PHENOSENSE™ (ViroLogic Inc., South San Francisco, Calif.). See Petropoulos et al., 2000, Antimicrob. Agents Chemother. 44:920-928; U.S. Pat. Nos. 5,837,464 and 6,242,187. PHENOSENSE™ is a phenotypic assay that achieves the benefits of phenotypic testing and overcomes the drawbacks of previous assays. Because the assay has been automated, PHENOSENSE™ offers higher throughput under controlled conditions. The result is an assay that accurately defines the susceptibility profile of a patient's HIV isolates to all currently available antiretroviral drugs, and delivers results directly to the physician within about 10 to about 15 days of sample receipt. PHENOSENSE™ is accurate and can obtain results with only one round of viral replication, thereby avoiding selection of subpopulations of virus. The results are quantitative, measuring varying degrees of drug susceptibility, and sensitive—the test can be performed on blood specimens with a viral load of about 500 copies/mL and can detect minority populations of some drug-resistant virus at concentrations of 10% or less of total viral population. Furthermore, the results are reproducible and can vary by less than about 1.4-2.5 fold, depending on the drug, in about 95% of the assays performed.
# A resistance test vector (“RTV”) can then be constructed by incorporating the amplified viral gene sequences into a replication defective viral vector by using any method known in the art of incorporating gene sequences into a vector. In one embodiment, restrictions enzymes and conventional cloning methods are used. See Sambrook et al., 2001, Molecular Cloning: A Laboratory Manual, Cold Spring Harbor Laboratory, 3rd ed., NY; and Ausubel et al., 1989, Current Protocols in Molecular Biology, Greene Publishing Associates and Wiley Interscience, NY. In a preferred embodiment, ApaI and PinAI restriction enzymes are used. Preferably, the replication defective viral vector is the indicator gene viral vector (“IGVV”). In a preferred embodiment, the viral vector contains a means for detecting replication of the RTV. Preferably, the viral vector contains a luciferase expression cassette.
# The assay can be performed by first co-transfecting host cells with RTV DNA and a plasmid that expresses the envelope proteins of another retrovirus, for example, amphotropic murine leukemia virus (MLV). Following transfection, virus particles can be harvested and used to infect fresh target cells. The completion of a single round of viral replication can be detected by the means for detecting replication contained in the vector. In a preferred embodiment, the completion of a single round of viral replication results in the production of luciferase. Serial concentrations of anti-viral agents can be added at either the transfection step or the infection step.
# Susceptibility to the anti-viral agent can be measured by comparing the replication of the vector in the presence and absence of the anti-viral agent. For example, susceptibility to the anti-viral agent can be measured by comparing the luciferase activity in the presence and absence of the anti-viral agent. Susceptible viruses would produce low levels of luciferase activity in the presence of anti-viral agents, whereas viruses with reduced susceptibility would produce higher levels of luciferase activity.
# In order to determine the relationship between an HIV-1 strain's protease sequence and its susceptibility to treatment with a protease inhibitor, a data set of patient plasma samples was analyzed genotypically as well as phenotypically. The phenotypic assay was conducted using the PHENOSENSE™ (Virologic, South San Francisco, Calif.) HIV assay (Petropoulos et al., 2000, Antimicrob. Agents Chemother. 44:920-928; U.S. Pat. Nos. 5,837,464 and 6,242,187). Plasma samples were collected from HIV-1-infected patients. […]
SMILES,"Fold change (FC) in IC50, 10th percentile","Fold change (FC) in IC50, 90th percentile","Fold change (FC) in IC50, mean","Fold change (FC) in IC50, median"
"CC(C)CN(C[C@@H](O)[C@H](Cc1ccccc1)NC(=O)O[C@H]1CCOC1)S(=O)(=O)c1ccc(N)cc1 [APV, amprenavir]",0.35,1.32,0.69,0.71
"CC(C)c1nc(CN(C)C(=O)N[C@H](C(=O)N[C@@H](Cc2ccccc2)C[C@H](O)[C@H](Cc2ccccc2)NC(=O)OCc2cncs2)C(C)C)cs1 [RTV, ritonavir]",0.45,1.55,0.82,0.81
"Cc1cccc(C)c1OCC(=O)N[C@@H](Cc1ccccc1)[C@@H](O)C[C@H](Cc1ccccc1)NC(=O)[C@H](C(C)C)N1CCCNC1=O [LPV, lopinavir]",0.40,1.15,0.68,0.69
"CC(C)(C)NC(=O)[C@@H]1CN(Cc2cccnc2)CCN1C[C@@H](O)C[C@@H](Cc1ccccc1)C(=O)N[C@H]1c2ccccc2C[C@H]1O [IDV, indinavir]",0.44,1.35,0.78,0.78
"CC(C)(C)NC(=O)[C@@H]1C[C@@H]2CCCC[C@@H]2CN1C[C@@H](O)[C@H](Cc1ccccc1)NC(=O)[C@H](CC(N)=O)NC(=O)c1ccc2ccccc2n1 [SQV, saquinavir]",0.44,1.12,0.70,0.71
"Cc1c(O)cccc1C(=O)N[C@@H](CSc1ccccc1)[C@H](O)CN1C[C@H]2CCCC[C@H]2C[C@H]1C(=O)NC(C)(C)C [NFV, nelfinavir]",0.54,2.09,1.05,1.05
